Test results: ChEMBL document CHEMBL1201862, “PubChem BioAssay data set” (2004)
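1) Cells in 96-well plates. 2) Compound, 48 h, 5 concentrations. 3) Linear interpolation between surrounding doses. 4) Unreached endpoint = highest concentration. Here, GI50 denotes the concentration required for 50% inhibition of growth.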 The source made the active and inactive calls. Cut-off read from the data, not from the text of the source: active = GI50 up to about 1.1 µM and inactive = higher.

Key:
Assay in all cases: NCI anticancer screen, dose series, 48 h
SF-295 = system: SF-295
RXF 393 = system: RXF 393
A498 = system: A498
A549 = system: A549
HOP-62 = system: HOP-62
SK-MEL-28 = system: SK-MEL-28
HT-29 = system: HT-29
SF-539 = system: SF-539
MOLT-4 = system: MOLT-4
NCI-H460 = system: NCI-H460
COLO 205 = system: COLO 205
UACC-257 = system: UACC-257
OVCAR-5 = system: OVCAR-5
NCI-H23 = system: NCI-H23
SK-OV-3 = system: SK-OV-3
LOX IMVI = system: LOX IMVI
SK-MEL-5 = system: SK-MEL-5
SW-620 = system: SW-620
HCT-116 = system: HCT-116
CCRF-CEM = system: CCRF-CEM

SMILES	GI50 (SF-295)	GI50 (RXF 393)	GI50 (A498)	GI50 (A549)	GI50 (HOP-62)	GI50 (SK-MEL-28)	GI50 (HT-29)	GI50 (SF-539)	GI50 (MOLT-4)	GI50 (NCI-H460)	GI50 (COLO 205)	GI50 (UACC-257)	GI50 (OVCAR-5)	GI50 (NCI-H23)	GI50 (SK-OV-3)	GI50 (LOX IMVI)	GI50 (SK-MEL-5)	GI50 (SW-620)	GI50 (HCT-116)	GI50 (CCRF-CEM)
CC1(c2sccc2Cl)CC(c2sccc2Cl)=C(C#N)C(=C(C#N)C#N)N1 (stereo not given)	17.9 µM (inactive)	16.4 µM (inactive)	18 µM (inactive)	24.7 µM (inactive)	19.3 µM (inactive)	18.2 µM (inactive)	24 µM (inactive)	19.8 µM (inactive)	38.7 µM (inactive)	19 µM (inactive)	23.1 µM (inactive)	22.4 µM (inactive)	22.3 µM (inactive)	17.9 µM (inactive)	17.5 µM (inactive)	19.2 µM (inactive)	18.5 µM (inactive)	18.8 µM (inactive)	17.2 µM (inactive)	38.4 µM (inactive)
COc1ccc(NC(=O)C(=O)C(C(=O)c2ccccc2)C2OC(=O)c3ccccc32)c([N+](=O)[O-])c1 (stereo not given)	> 100 µM (inactive)	> 100 µM (inactive)	> 100 µM (inactive)	> 100 µM (inactive)	> 100 µM (inactive)	> 100 µM (inactive)	> 100 µM (inactive)	> 100 µM (inactive)	> 100 µM (inactive)	> 100 µM (inactive)	> 100 µM (inactive)	> 100 µM (inactive)	> 100 µM (inactive)	> 100 µM (inactive)	> 100 µM (inactive)	> 100 µM (inactive)	> 100 µM (inactive)	> 100 µM (inactive)	> 100 µM (inactive)	> 100 µM (inactive)
COc1cccc2[s+]snc12	46.3 µM (inactive)	67 µM (inactive)	95.7 µM (inactive)	77.6 µM (inactive)	61.7 µM (inactive)	> 100 µM (inactive)	96.8 µM (inactive)	35.8 µM (inactive)	29.7 µM (inactive)	68.4 µM (inactive)	> 100 µM (inactive)	30.1 µM (inactive)	> 100 µM (inactive)	57.7 µM (inactive)	> 100 µM (inactive)	33.6 µM (inactive)	24.3 µM (inactive)	29.4 µM (inactive)	45.4 µM (inactive)	> 10 µM (inactive)
CSc1nc(SC)c2cnn(CC3CO3)c2n1 (stereo not given)	24.6 µM (inactive)	17.8 µM (inactive)	62.7 µM (inactive)	25.4 µM (inactive)	18.7 µM (inactive)	13.9 µM (inactive)	22 µM (inactive)	19.5 µM (inactive)	2.17 µM (inactive)	21 µM (inactive)	18.7 µM (inactive)	19.2 µM (inactive)	17 µM (inactive)	18.6 µM (inactive)	30.8 µM (inactive)	7.59 µM (inactive)	13.3 µM (inactive)	11.6 µM (inactive)	13.4 µM (inactive)	12.4 µM (inactive)
COc1cccc2c1C(=O)c1c(O)c3c(c(O)c1C2=O)CC(O)(C(=O)CO)CC3OC1CC(N)C(I)C(C)O1 (stereo not given)	2.1 µM (inactive)	2.44 µM (inactive)	3.53 µM (inactive)	0.736 µM (active)	1.6 µM (inactive)	15.2 µM (inactive)	3.15 µM (inactive)	2.62 µM (inactive)	0.335 µM (active)	0.313 µM (active)	13.3 µM (inactive)	> 29.3 µM (inactive)	13.5 µM (inactive)	2.28 µM (inactive)	3.98 µM (inactive)	1.45 µM (inactive)	2.64 µM (inactive)	3.08 µM (inactive)	0.573 µM (active)	1.08 µM (active)
Cn1c(-c2cccs2)cc(-c2cccs2)c1-c1ccco1	29.4 µM (inactive)	27.9 µM (inactive)	27.7 µM (inactive)	50.8 µM (inactive)	> 92 µM (inactive)	49.1 µM (inactive)	> 67.6 µM (inactive)	> 100 µM (inactive)	1.8 µM (inactive)	38.7 µM (inactive)	27.5 µM (inactive)	39.9 µM (inactive)	> 100 µM (inactive)	3.02 µM (inactive)	> 100 µM (inactive)	22.7 µM (inactive)	23.8 µM (inactive)	50.5 µM (inactive)	27.7 µM (inactive)	28.8 µM (inactive)
